{"source": "patent US11090308B2", "about": "“Methods of treating liver disorders or lipid disorders with a THR-beta agonist” (Madrigal Pharmaceuticals, Inc., priority 2016, dated 2021)", "key": {"OCT2": {"molecular_target": "T1, OCT2 (Homo sapiens, UniProt O15244)", "T1 sequence (O15244 1-555)": "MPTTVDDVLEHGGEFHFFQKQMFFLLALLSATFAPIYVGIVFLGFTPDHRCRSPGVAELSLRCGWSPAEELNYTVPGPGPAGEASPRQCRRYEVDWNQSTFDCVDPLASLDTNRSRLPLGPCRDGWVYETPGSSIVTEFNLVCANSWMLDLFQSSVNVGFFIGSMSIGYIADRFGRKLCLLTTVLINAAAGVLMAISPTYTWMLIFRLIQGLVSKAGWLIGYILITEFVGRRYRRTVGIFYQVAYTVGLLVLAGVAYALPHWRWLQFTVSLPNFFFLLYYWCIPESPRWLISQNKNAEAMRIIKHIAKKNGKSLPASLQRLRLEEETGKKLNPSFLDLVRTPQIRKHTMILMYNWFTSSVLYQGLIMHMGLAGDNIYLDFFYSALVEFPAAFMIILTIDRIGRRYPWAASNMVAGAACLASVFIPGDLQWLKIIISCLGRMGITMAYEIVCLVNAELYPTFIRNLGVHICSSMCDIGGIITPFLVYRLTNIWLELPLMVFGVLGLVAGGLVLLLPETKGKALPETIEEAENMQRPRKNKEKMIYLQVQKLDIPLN", "assay": "In vitro drug transporter assay, OCT2", "type": "in vitro ADME"}, "BCRP": {"molecular_target": "T2, BCRP (Homo sapiens, UniProt Q9UNQ0)", "T2 sequence (Q9UNQ0 1-655)": "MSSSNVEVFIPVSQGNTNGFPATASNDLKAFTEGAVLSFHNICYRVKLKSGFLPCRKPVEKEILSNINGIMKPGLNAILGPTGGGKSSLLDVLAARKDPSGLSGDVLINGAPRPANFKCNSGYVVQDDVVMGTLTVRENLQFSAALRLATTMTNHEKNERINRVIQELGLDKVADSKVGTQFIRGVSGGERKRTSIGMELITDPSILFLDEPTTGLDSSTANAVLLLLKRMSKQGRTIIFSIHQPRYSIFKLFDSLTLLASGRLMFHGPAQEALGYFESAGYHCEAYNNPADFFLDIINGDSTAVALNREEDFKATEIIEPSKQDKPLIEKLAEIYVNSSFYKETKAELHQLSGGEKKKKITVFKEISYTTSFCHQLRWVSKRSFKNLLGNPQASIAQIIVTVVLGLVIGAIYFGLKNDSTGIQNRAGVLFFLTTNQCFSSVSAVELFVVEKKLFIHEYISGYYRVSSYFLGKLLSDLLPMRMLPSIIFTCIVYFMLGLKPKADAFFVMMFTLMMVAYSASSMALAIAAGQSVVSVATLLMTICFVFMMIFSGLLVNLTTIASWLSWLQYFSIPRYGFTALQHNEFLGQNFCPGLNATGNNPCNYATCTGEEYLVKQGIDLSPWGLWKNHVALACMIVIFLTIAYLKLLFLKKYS", "assay": "In vitro drug transporter assay, BCRP", "type": "in vitro ADME", "description": "(§1) The following studies have been conducted: (a) in vitro drug protein binding, transporter (organic anion transporting polypeptide [OATP], P-glycoprotein [P-gp], breast cancer-related protein [BCRP], and multiple drug resistance protein 1 [MDR1]), and cytochrome P-450 enzyme assays to investigate absorption, distribution, and excretion; (b) in vivo MGL-3196 rat and dog oral PK and bioavailability studies; (c) in vivo ^14C-MGL-3196 rat and dog oral pharmacokinetics, absorption, excretion, and tissue distribution by quantitative whole-body autoradiography (QWBA) studies; and (d) liver disposition of MGL-3196 using an in vitro sandwiched hepatocyte model system (B-CLEAR® technology) in dog (SCDH) and human (SCHH) hepatocytes."}, "MDR1 (P-gp)": {"molecular_target": "MDR1 (P-gp) (Homo sapiens, UniProt P08183)", "sequence (P08183 whole entry, species assumed)": "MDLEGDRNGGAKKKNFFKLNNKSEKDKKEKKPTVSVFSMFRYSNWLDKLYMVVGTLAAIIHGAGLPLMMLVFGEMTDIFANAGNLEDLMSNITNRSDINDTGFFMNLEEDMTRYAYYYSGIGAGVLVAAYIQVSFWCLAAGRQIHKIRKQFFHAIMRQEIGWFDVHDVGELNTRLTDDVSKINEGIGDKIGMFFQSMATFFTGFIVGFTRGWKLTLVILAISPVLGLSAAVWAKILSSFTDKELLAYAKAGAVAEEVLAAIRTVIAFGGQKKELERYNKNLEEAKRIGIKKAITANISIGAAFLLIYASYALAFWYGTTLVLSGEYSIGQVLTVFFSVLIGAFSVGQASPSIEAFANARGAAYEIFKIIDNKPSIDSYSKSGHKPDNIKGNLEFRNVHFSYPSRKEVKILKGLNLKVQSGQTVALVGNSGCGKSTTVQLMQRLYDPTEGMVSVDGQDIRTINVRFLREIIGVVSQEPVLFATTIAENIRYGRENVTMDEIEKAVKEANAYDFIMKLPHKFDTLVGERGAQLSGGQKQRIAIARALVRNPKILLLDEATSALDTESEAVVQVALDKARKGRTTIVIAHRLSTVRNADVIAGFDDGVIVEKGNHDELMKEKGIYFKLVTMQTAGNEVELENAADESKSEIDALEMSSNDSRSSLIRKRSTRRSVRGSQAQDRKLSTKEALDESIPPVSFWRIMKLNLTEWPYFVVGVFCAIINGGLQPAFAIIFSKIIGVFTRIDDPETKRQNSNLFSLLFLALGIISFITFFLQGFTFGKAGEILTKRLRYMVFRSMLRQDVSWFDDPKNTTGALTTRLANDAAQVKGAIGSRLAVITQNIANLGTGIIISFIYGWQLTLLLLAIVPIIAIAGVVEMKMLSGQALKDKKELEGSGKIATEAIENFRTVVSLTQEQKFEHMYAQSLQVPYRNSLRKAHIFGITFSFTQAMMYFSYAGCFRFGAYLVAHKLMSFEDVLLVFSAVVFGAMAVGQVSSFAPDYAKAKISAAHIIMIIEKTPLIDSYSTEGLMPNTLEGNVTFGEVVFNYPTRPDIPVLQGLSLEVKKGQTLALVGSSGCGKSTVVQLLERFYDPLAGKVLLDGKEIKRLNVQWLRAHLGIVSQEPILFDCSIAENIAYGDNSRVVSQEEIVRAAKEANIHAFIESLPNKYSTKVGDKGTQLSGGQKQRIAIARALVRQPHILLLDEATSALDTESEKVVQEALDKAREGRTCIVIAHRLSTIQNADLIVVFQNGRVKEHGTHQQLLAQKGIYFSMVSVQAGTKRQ", "assay": "In vitro drug transporter assay, MDR1 (P-gp)", "type": "in vitro ADME", "description": "as §1"}, "[1]": {"assay": "Dog liver, bile, plasma distribution", "type": "in vivo", "settings": "for concentration at 4 h: Beagle, po; for concentration at 4 h / Concentration in Bile: 4 hours after single daily 100 mg/kg oral doses for four days", "description": "Tables 2A-2B show ^14C-MGL-3196 dog ADME study design."}, "CYP2A6": {"molecular_target": "T3, CYP2A6 (Homo sapiens, UniProt P11509)", "T3 sequence (P11509 1-494)": "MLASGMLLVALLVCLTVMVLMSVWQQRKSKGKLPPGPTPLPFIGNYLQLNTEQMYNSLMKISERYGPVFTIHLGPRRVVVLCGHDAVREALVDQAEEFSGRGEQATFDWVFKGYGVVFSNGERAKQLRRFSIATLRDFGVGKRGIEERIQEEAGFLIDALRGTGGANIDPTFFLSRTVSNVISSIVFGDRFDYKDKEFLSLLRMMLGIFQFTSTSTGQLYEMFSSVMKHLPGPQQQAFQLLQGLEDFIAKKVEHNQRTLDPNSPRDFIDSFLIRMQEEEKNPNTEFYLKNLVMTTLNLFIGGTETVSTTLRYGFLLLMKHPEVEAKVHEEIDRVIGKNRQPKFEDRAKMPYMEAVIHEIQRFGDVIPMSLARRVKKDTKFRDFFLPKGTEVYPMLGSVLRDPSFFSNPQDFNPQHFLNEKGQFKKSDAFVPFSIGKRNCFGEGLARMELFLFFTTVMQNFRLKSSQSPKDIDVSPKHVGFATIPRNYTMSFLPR", "assay": "In vitro Cytochrome P-450 enzyme assay, CYP2A6", "type": "in vitro ADME", "description": "as §1"}}, "note": "Read-outs that look alike come from different tables or passages of the source.", "data": [{"smiles": "CC(C)c1cc(Oc2c(Cl)cc(-n3nc(C#N)c(=O)[nH]c3=O)cc2Cl)n[nH]c1=O", "note": "[MGL-3196, 2-(3,5-dichloro-4-((5-isopropyl-6-oxo-1,6-dihydropyridazin-3-yl)oxy)phenyl)-3,5-dioxo-2,3,4,5-tetrahydro-1,2,4-triazine-6-carbonitrile]", "values": [{"measurement": "Inhibitor of: OCT2", "setting": "OCT2", "value": "not an inhibitor"}, {"measurement": "Substrate for: BCRP", "setting": "BCRP", "value": "BCRP"}, {"measurement": "Inhibitor of: BCRP, % inhibition", "setting": "BCRP; @ 25 uM genistein", "value": "3-sulfate; 24% @ 25 uM genistein)"}, {"measurement": "IC50", "setting": "BCRP; for Estrone-3-sulfate, read-out: Inhibitor of: BCRP, IC50", "value": 27.4, "unit": "µM"}, {"measurement": "Inhibitor of: MDR1", "setting": "MDR1 (P-gp)", "value": "not an inhibitor"}, {"measurement": "Substrate for: MDR1 (P-gp)", "setting": "MDR1 (P-gp)", "value": "weak substrate"}, {"measurement": "concentration at 4 h", "setting": "[1]; dog, hepatic portal vein plasma, 100 mg/kg, Dog 1, read-out: Concentration in Hepatic Portal Vein Plasma", "value": 18.8, "unit": "µg/mL"}, {"measurement": "concentration at 4 h", "setting": "[1]; dog, hepatic portal vein plasma, 100 mg/kg, Dog 2, read-out: Concentration in Hepatic Portal Vein Plasma", "value": 86.6, "unit": "µg/mL"}, {"measurement": "concentration at 4 h", "setting": "[1]; dog, hepatic portal vein plasma, 100 mg/kg, Dog 3, read-out: Concentration in Hepatic Portal Vein Plasma", "value": 98.6, "unit": "µg/mL"}, {"measurement": "concentration at 4 h", "setting": "[1]; dog, hepatic portal vein plasma, 100 mg/kg, Mean, read-out: Concentration in Hepatic Portal Vein Plasma", "value": 68, "unit": "µg/mL"}, {"measurement": "concentration at 4 h", "setting": "[1]; dog, liver, 100 mg/kg, Dog 1, read-out: Concentration in Liver", "value": 129000, "unit": "ng/g"}, {"measurement": "concentration at 4 h", "setting": "[1]; dog, liver, 100 mg/kg, Dog 2, read-out: Concentration in Liver", "value": 319000, "unit": "ng/g"}, {"measurement": "concentration at 4 h", "setting": "[1]; dog, liver, 100 mg/kg, Dog 3, read-out: Concentration in Liver", "value": 210000, "unit": "ng/g"}, {"measurement": "concentration at 4 h", "setting": "[1]; dog, liver, 100 mg/kg, Mean, read-out: Concentration in Liver", "value": 219000, "unit": "ng/g"}, {"measurement": "concentration at 4 h", "setting": "[1]; dog, systemic plasma, 100 mg/kg, Dog 1, read-out: Concentration in Systemic Plasma", "value": 16.7, "unit": "µg/mL"}, {"measurement": "concentration at 4 h", "setting": "[1]; dog, systemic plasma, 100 mg/kg, Dog 2, read-out: Concentration in Systemic Plasma", "value": 81.5, "unit": "µg/mL"}, {"measurement": "concentration at 4 h", "setting": "[1]; dog, systemic plasma, 100 mg/kg, Dog 3, read-out: Concentration in Systemic Plasma", "value": 115, "unit": "µg/mL"}, {"measurement": "concentration at 4 h", "setting": "[1]; dog, systemic plasma, 100 mg/kg, Mean, read-out: Concentration in Systemic Plasma", "value": 71.1, "unit": "µg/mL"}, {"measurement": "Concentration in Bile", "setting": "[1]; Dog 1", "value": "26,400,000 ng/mL"}, {"measurement": "Concentration in Bile", "setting": "[1]; Dog 2", "value": "10,400,000 ng/mL"}, {"measurement": "Concentration in Bile", "setting": "[1]; Dog 3", "value": "15,500,000 ng/mL"}, {"measurement": "Concentration in Bile", "setting": "[1]; Mean", "value": "17,400,000 ng/mL"}, {"measurement": "Kp at 4 h", "setting": "[1]; bile versus plasma, oral, 100 mg/kg, dog, 4 h post-dose, read-out: concentration in bile higher than in plasma", "value": "~250"}, {"measurement": "concentration in bile higher than in liver", "setting": "[1]; dog, 4 h post-dose", "value": "~80", "unit": "×"}, {"measurement": "Kp at 4 h", "setting": "[1]; liver versus plasma, oral, dog, 4 h, 100 mg/kg, read-out: liver to plasma ratio", "value": 3.1}, {"measurement": "Kp at 24 h", "setting": "[1]; liver versus plasma, oral, dog, 24 h, 100 mg/kg, read-out: liver to plasma ratio", "value": 267}, {"measurement": "Inhibitor of: CYP2A6", "setting": "CYP2A6", "value": "not an inhibitor"}]}]}
